Laboratory results as given in patent US6355799B1, “Substituted benzene compounds, process for their preparation, and herbicidal and defoliant compositions containing them” (ISK Americas Incorporated, priority 1997, dated 2002).

How the values were obtained:
Type in all cases: in vivo
[1] = test system: upland rice (Oryza sp., var. Tebonnet, RICE); assay: Pre-emerge test, crop safety; settings: rating scale 0-100, 14 days after application
In short: (§1)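 Plants grown in 10 cm pots of sandy loam mix received acetone-dissolved compounds through a moving flat-fan nozzle. Doses ranged from 15 to 1000 g ai/ha. Pre-emerge pots were seeded one day earlier, post-emerge pots 8–21 days earlier. Fourteen days on, each pot was graded 0–100 for damage.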

[2] = test system: field corn (Zea mays L., var. Dekalb 535, CORN); assay: Pre-emerge test, crop safety; settings: rating scale 0-100, 14 days after application
In short: as §1

[3] = test system: large crabgrass (Digitaria sanguinalis, DIGSA); assay: Pre-emerge test, greenhouse herbicide activity screening; settings: rating scale 0-100, 14 days after application
In short: (§2)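 Fourteen days after spraying, crop and weed injury was graded visually from 0, no effect, to 100, every plant dead. Test substances were dissolved in acetone and applied at 15–1000 g ai/ha with a flat-fan nozzle. Application was either pre-emergence, one day after sowing, or post-emergence at the 2–3 leaf stage.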

[4] = test system: green foxtail (Setaria viridis, SETVI); assay: as above; settings: rating scale 0-100, 14 days after application
In short: as §2

[5] = test system: lambsquarters (Chenopodium album, CHEAL); assay: as above; settings: rating scale 0-100, 14 days after application
In short: as §2

[6] = test system: johnsongrass (Sorghum halepense, SORHA); assay: as above; settings: rating scale 0-100, 14 days after application
In short: as §2

[7] = test system: sicklepod (Cassia obtusifolia, CASOB); assay: as above; settings: rating scale 0-100, 14 days after application
In short: as §2

[8] = test system: barnyardgrass (Echinochloa crus-galli, ECHCG); assay: as above; settings: rating scale 0-100, 14 days after application
In short: as §2

[9] = test system: common ragweed (Ambrosia artemisizfolia L., AMBEL); assay: as above; settings: rating scale 0-100, 14 days after application
In short: as §2

[10] = test system: velvetleaf (Abutilon theophrasti, ABUTH); assay: as above; settings: rating scale 0-100, 14 days after application
In short: as §2

[11] = test system: ivyleaf morningglory (Ipomoea hederacea, IPOHE); assay: as above; settings: rating scale 0-100, 14 days after application
In short: as §2

[12] = test system: large crabgrass (Digitaria sanguinalis, DIGSA); assay: Post-emerge test, greenhouse herbicide activity screening; settings: rating scale 0-100 (0 no damage, 100 complete death), 14 days after application
In short: (§3)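 Compounds in acetone were track-sprayed at 15–1000 g ai/ha: pre-emergence onto soil sown the previous day, then top-watered to incorporate and later bottom-watered; post-emergence onto 2–3 leaf plants with 0.25% v/v surfactant, bottom-watered only. Ratings on a 0–100 phytotoxicity scale were taken at day 14.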

[13] = test system: green foxtail (Setaria viridis, SETVI); assay: as above; settings: rating scale 0-100 (0 no damage, 100 complete death), 14 days after application
In short: as §3

[14] = test system: redroot pigweed (Amaranthus retroflexus, AMARE); assay: as above; settings: rating scale 0-100 (0 no damage, 100 complete death), 14 days after application
In short: as §3

[15] = test system: lambsquarters (Chenopodium album, CHEAL); assay: as above; settings: rating scale 0-100 (0 no damage, 100 complete death), 14 days after application
In short: as §3

[16] = test system: sicklepod (Cassia obtusifolia, CASOB); assay: as above; settings: rating scale 0-100 (0 no damage, 100 complete death), 14 days after application
In short: as §3

[17] = test system: barnyardgrass (Echinochloa crus-galli, ECHCG); assay: as above; settings: rating scale 0-100 (0 no damage, 100 complete death), 14 days after application
In short: as §3

[18] = test system: common ragweed (Ambrosia artemisizfolia L., AMBEL); assay: as above; settings: rating scale 0-100 (0 no damage, 100 complete death), 14 days after application
In short: as §3

[19] = test system: velvetleaf (Abutilon theophrasti, ABUTH); assay: as above; settings: rating scale 0-100 (0 no damage, 100 complete death), 14 days after application
In short: as §3

[20] = test system: ivyleaf morningglory (Ipomoea hederacea, IPOHE); assay: as above; settings: rating scale 0-100 (0 no damage, 100 complete death), 14 days after application
In short: as §3

[21] = test system: upland rice (Oryza sp., var. Tebonnet, RICE); assay: Post-emerge test, crop safety; settings: rating scale 0-100 (0 no damage, 100 complete death), 14 days after application
In short: as §2

[22] = test system: field corn (Zea mays L., var. Dekalb 535, CORN); assay: Post-emerge test, crop safety; settings: rating scale 0-100 (0 no damage, 100 complete death), 14 days after application
In short: as §2

[23] = test system: redroot pigweed (Amaranthus retroflexus, AMARE); assay: Pre-emerge test, greenhouse herbicide activity screening; settings: rating scale 0-100, 14 days after application
In short: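 Rating: 0–100 visual injury, 14 DAA. Application: acetone, 187 l/ha, 15–1000 g ai/ha, flat-fan track sprayer with nozzle 40–45 cm above soil or canopy. Post-emerge runs used 0.25% v/v surfactant on 2–3 leaf plants.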

CCCCCCOC(=O)C(Cl)Cc1c(OC)c(Cl)cc(F)c1-n1c(=O)cc(C(F)(F)F)n(C)c1=O (single isomer, unassigned) [14-12]
Pre-emerge phytotoxicity rating, crop damage RICE ([1]; 63 g ai/ha): 0 | Pre-emerge phytotoxicity rating, crop damage RICE ([1]; 250 g ai/ha): 0 | Pre-emerge phytotoxicity rating, crop damage CORN ([2]; 63 g ai/ha): 0 | Pre-emerge phytotoxicity rating, crop damage CORN ([2]; 250 g ai/ha): 0 | Pre-emerge herbicidal activity, phytotoxicity rating DIGSA ([3]; 63 g ai/ha): 0 | Pre-emerge herbicidal activity, phytotoxicity rating DIGSA ([3]; 250 g ai/ha): 100 | Pre-emerge herbicidal activity, phytotoxicity rating SETVI ([4]; 63 g ai/ha): 0 | Pre-emerge herbicidal activity, phytotoxicity rating SETVI ([4]; 250 g ai/ha): 0 | Pre-emerge herbicidal activity, phytotoxicity rating CHEAL ([5]; 63 g ai/ha): 50 | Pre-emerge herbicidal activity, phytotoxicity rating CHEAL ([5]; 250 g ai/ha): 60 | Pre-emerge herbicidal activity, phytotoxicity rating SORHA ([6]; 63 g ai/ha): 0 | Pre-emerge herbicidal activity, phytotoxicity rating SORHA ([6]; 250 g ai/ha): 0 | Pre-emerge herbicidal activity, phytotoxicity rating CASOB ([7]; 63 g ai/ha): 0 | Pre-emerge herbicidal activity, phytotoxicity rating CASOB ([7]; 250 g ai/ha): 0 | Pre-emerge herbicidal activity, phytotoxicity rating ECHCG ([8]; 63 g ai/ha): 0 | Pre-emerge herbicidal activity, phytotoxicity rating ECHCG ([8]; 250 g ai/ha): 0 | Pre-emerge herbicidal activity, phytotoxicity rating AMBEL ([9]; 63 g ai/ha): 0 | Pre-emerge herbicidal activity, phytotoxicity rating AMBEL ([9]; 250 g ai/ha): 0 | Pre-emerge herbicidal activity, phytotoxicity rating ABUTH ([10]; 63 g ai/ha): 0 | Pre-emerge herbicidal activity, phytotoxicity rating ABUTH ([10]; 250 g ai/ha): 20 | Pre-emerge herbicidal activity, phytotoxicity rating IPOHE ([11]; 63 g ai/ha): 0 | Pre-emerge herbicidal activity, phytotoxicity rating IPOHE ([11]; 250 g ai/ha): 0 | Post-emerge Herbicidal Activity, phytotoxicity rating DIGSA ([12]; Rate 63 g ai/ha): 50 | Post-emerge Herbicidal Activity, phytotoxicity rating DIGSA ([12]; Rate 250 g ai/ha): 60 | Post-emerge Herbicidal Activity, phytotoxicity rating SETVI ([13]; Rate 63 g ai/ha): 30 | Post-emerge Herbicidal Activity, phytotoxicity rating SETVI ([13]; Rate 250 g ai/ha): 40 | Post-emerge Herbicidal Activity, phytotoxicity rating AMARE ([14]; Rate 63 g ai/ha): 85 | Post-emerge Herbicidal Activity, phytotoxicity rating AMARE ([14]; Rate 250 g ai/ha): 90 | Post-emerge Herbicidal Activity, phytotoxicity rating CHEAL ([15]; Rate 63 g ai/ha): 90 | Post-emerge Herbicidal Activity, phytotoxicity rating CHEAL ([15]; Rate 250 g ai/ha): 99 | Post-emerge Herbicidal Activity, phytotoxicity rating CASOB ([16]; Rate 63 g ai/ha): 20 | Post-emerge Herbicidal Activity, phytotoxicity rating CASOB ([16]; Rate 250 g ai/ha): 80 | Post-emerge Herbicidal Activity, phytotoxicity rating ECHCG ([17]; Rate 63 g ai/ha): 98 | Post-emerge Herbicidal Activity, phytotoxicity rating ECHCG ([17]; Rate 250 g ai/ha): 99 | Post-emerge Herbicidal Activity, phytotoxicity rating AMBEL ([18]; Rate 63 g ai/ha): 80 | Post-emerge Herbicidal Activity, phytotoxicity rating AMBEL ([18]; Rate 250 g ai/ha): 80 | Post-emerge Herbicidal Activity, phytotoxicity rating ABUTH ([19]; Rate 63 g ai/ha): 10 | Post-emerge Herbicidal Activity, phytotoxicity rating ABUTH ([19]; Rate 250 g ai/ha): 85 | Post-emerge Herbicidal Activity, phytotoxicity rating IPOHE ([20]; Rate 63 g ai/ha): 40 | Post-emerge Herbicidal Activity, phytotoxicity rating IPOHE ([20]; Rate 250 g ai/ha): 70 | Post-emerge phytotoxicity rating RICE (crop damage) ([21]; Rate 63 g ai/ha): 0 | Post-emerge phytotoxicity rating RICE (crop damage) ([21]; Rate 250 g ai/ha): 10 | Post-emerge phytotoxicity rating CORN (crop damage) ([22]; Rate 63 g ai/ha): 30 | Post-emerge phytotoxicity rating CORN (crop damage) ([22]; Rate 250 g ai/ha): 85 | Pre-emerge herbicidal activity, phytotoxicity rating AMARE ([23]; 63 g ai/ha): 60 | Pre-emerge herbicidal activity, phytotoxicity rating AMARE ([23]; 250 g ai/ha): 100
